In US6872750B2, “Modulating angiogenesis” (Regents of the University of California, priority 2000, dated 2005):

Key:
[1] = system: Kuz; assay: Inhibition of angiogenesis by Kuz inhibitors in several model systems
Experimental: The presence of Kuz and its activity is assayed by ELISA and Kuz-specific protease activity prior to or subsequent to the measure of angiogenesis.

[2] = system: HUVEC; assay: HUVEC formation of vascular-like structures on Matrigel; type: cell-based, human; conditions: HUVEC on growth factor-reduced Matrigel, 8-12 h
Experimental: The formation of vascular-like structures by HUVEC is assessed on the basement membrane matrix preparation, growth factor-reduced Matrigel (Becton Dickinson, Bedford, Mass.), as described in Kureishi Y, et al. Nat Med 2000 September;6(9):1004-10. Two-well chamber slides are coated with Matrigel (10 mg/ml) according to the manufacturer's instructions. HUVEC are seeded on coated plates at 4-5×10^4 cells/well in EBM and incubated at 37° C. for 60 minutes. The media are supplemented with the agents (metalloprotease domain of human Kuz, Kuz inhibitors, Kuz antibodies, VEGF, etc.) and incubated at 37° C. for 8-12 h. Tube formation image is observed using an inverted phase contrast microscope (Nikon Diaphot). Images are captured with a video graphic system (DEI-750 CE Digital Output Camera, Optronics, Goleta, Calif.). The degree of tube formation is quantified by measuring the length of tubes in random fields from each well using the National Institutes of Health (NIH) Image Program.

For `CC(C)CC(CC(=O)NO)C(=O)N[C@@H](C)C(=O)NCCN` (stereo partly drawn) [IC-3, N-{D,L-[2-(hydroxyaminocarbonyl)methyl]-4-methyl-pentanoyl}-L-alanine, 2-aminoethyl amide], the inhibition of angiogenesis [1] was “inhibit angiogenesis”.
With “TIMP-1: natural MMP inhibitor, tissue inhibitor of MMPs” the inhibition of angiogenesis [1] was “inhibit angiogenesis”.
VEGF was tested, and the “formation of capillary-like tubes” value [2] was “promotes the formation of capillary-like tubes”.
With `CNC(=O)[C@H](Cc1c[nH]c2ccccc12)NC(=O)[C@@H](CC(=O)NO)CC(C)C` [GM6001, NHOHCOCH2CH(1-Bu)CO-Trp-NHMe] the inhibition of angiogenesis [1] was “inhibit angiogenesis”.
